The numbers were not newly measured in patent publication US20240180871A1, “MODIFIED-RELEASE SILODOSIN COMPOSITIONS AND USE THEREOF IN METHODS FOR MALE CONTRACEPTION” (PHARMAJOR INCORPORATED, priority 2022, published 2024), which cites them from elsewhere.

Molecules are shown by their SMILES. Where two headings read alike, the source gives them in different places.

Turning to `CC(Cc1cc2c(c(C(N)=O)c1)N(CCCO)CC2)NCCOc1ccccc1OCC(F)(F)F` (centres unmarked) [silodosin, 1-(3-hydroxypropyl)-5-[2-[[2-[2-(2,2,2-trifluoroethoxy)phenoxy]ethyl]amino]propyl]indoline-7-carboxamide], the “effect on semen in male subjects” value with male subjects (during BPH treatment, in some cases, KOBAYASHI 2009, SAKATA 2012) is recorded as “causing aspermia, azoospermia, or severe oligozoospermia”. The “sex-related adverse effects associated with administration” value with male subjects (known in the art) was “discomfort upon ejaculation, decrease in the quality of orgasm, decrease in erectile function, and reduction of sexual desire”.
On to `C[C@H](Cc1cc2c(c(C(N)=O)c1)N(CCCO)CC2)NCCOc1ccccc1OCC(F)(F)F` [(R)-silodosin, (−)-(R)-1-(3-hydroxypropyl)-5-[2-[[2-[2-(2,2,2-trifluoroethoxy)phenoxy]ethyl]amino]propyl]indoline-7-carboxamide], for which the solubility result is on record as “very soluble” (in acetic acid), “freely soluble” (in alcohol) and “very slightly soluble” (in water).
